In US20110027858A1, “Method of Modifying Fungal Morphology” (University of Akron, priority 2009, published 2011):

What was measured:
T. reesei [1] = assay: Effects of several surfactants on morphology (flocculation / pellet formation) of T. reesei; assay type: cell-based, Trichoderma reesei RUT C30; conditions: for Effective in changing morphology?: compared with 0.5 g/L and 1 g/L surfactant concentrations
Text: The effects of several surfactants on the morphology of T. reesei were studied. TABLE 1 summarizes the observations of the effects of several surfactants regarding to flocculation or formation of pellets in T. reesei. […] All surfactants listed in TABLE 1 were compared with 0.5 g/L and 1 g/L surfactant concentrations.

T. reesei [2] = assay: Shake flask growth of T. reesei with Triton X-100 (Example 6): morphology, growth, enzyme activity; assay type: cell-based, Trichoderma reesei RUT C30
Protocol: The effect of growing a fungus in a growth medium containing Triton X-100 was tested. A culture was grown on a growth medium containing (g/L): (NH4)2SO4 1.4, KH2PO4 2, MgSO4.7H2O 0.3, CaCl2.2H2O 0.4, urea 0.3, peptone 1.0, Tween-80 0.2, FeSO4.7H2O 0.005, MnSO4.H2O 0.0016, ZnSO4.7H2O 0.0014, CoCl2 0.002, and lactose 10.0. Initially the unadjusted pH was 5.5 after autoclaving.
Test cultures were grown in 50 mL volume in 250 mL flasks at 28° C. in a Que Orbital shaker (Model 4703, Parkersburg, W.Va., USA) at 250 rpm without pH control, initially at 5.5, for 7 days. Triton X-100 was tested at the following concentrations (g/L): 0.1, 0.3, 0.6, 0.8, 1.0, 1.5.
Cultures were followed for 7 days and visually checked for bulk morphology. Periodic monitoring was done aseptically by collecting a 2 mL representative sample every 24 hrs to measure cell concentration, enzyme activity, sugar concentration, and residual surfactant amounts.

Row | Substance | Size of generally uniform pellets formed (T. reesei [1]) | Effective in changing morphology? (T. reesei [1]) | global average doubling time (T. reesei [2]; across tested Triton concentrations, following the lag phase) [h] | average increase in the enzyme activity (T. reesei [2]; additive concentration in excess of 0.1 g/L) [%] | lag compared to the surfactant free system (T. reesei [2]; concentrations above 0.1 g/L) | concentration producing "pellet" growth (T. reesei [2]; tested at 0.1-1.5 g/L, 7 days, 28° C., 250 rpm) | Description: tendency toward cell flocculation with increasing surfactant concentration (T. reesei [1]; 0.5 g/L and 1 g/L surfactant, flocculation is correlated with pellet formation)
1 | 4-(1,1,3,3-tetramethylbutyl)phenyl-polyethylene glycol [Triton X-100] | uniform ~1 mm pellets | YES | 9.1 ± 1.8 | 73±12 | one-day | greater than 0.3 g/L | –
2 | polyoxyethylene sorbitan monolaurate [TWEEN ® 20] | – | YES | – | – | – | – | shows tendencies toward increased
